In US8846746B2, “Pyrazole compound and pharmaceutical use thereof” (Japan Tobacco Inc., priority 2011, dated 2014):

Molecular target: human SGLT1 (Homo sapiens (Human), UniProt P13866)
Test: SGLT1 inhibitory activity: 14C-AMG uptake into CHO-K1 cell line stably expressing human SGLT1
Assay type: cell-based
Details: 14C-AMG uptake, CHO-K1 cells stably expressing human SGLT1
How it was run: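 CHO-K1 cells stably expressing human SGLT1 were pre-incubated 20 min in Na(−) buffer (pH 7.4). Test compound in Na(+) buffer with BSA was added with ¹⁴C-AMG (8 kBq) plus unlabelled AMG (2 mM in the added solution) for 1 h at 37 °C.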

Chain of human SGLT1 (P13866 whole entry): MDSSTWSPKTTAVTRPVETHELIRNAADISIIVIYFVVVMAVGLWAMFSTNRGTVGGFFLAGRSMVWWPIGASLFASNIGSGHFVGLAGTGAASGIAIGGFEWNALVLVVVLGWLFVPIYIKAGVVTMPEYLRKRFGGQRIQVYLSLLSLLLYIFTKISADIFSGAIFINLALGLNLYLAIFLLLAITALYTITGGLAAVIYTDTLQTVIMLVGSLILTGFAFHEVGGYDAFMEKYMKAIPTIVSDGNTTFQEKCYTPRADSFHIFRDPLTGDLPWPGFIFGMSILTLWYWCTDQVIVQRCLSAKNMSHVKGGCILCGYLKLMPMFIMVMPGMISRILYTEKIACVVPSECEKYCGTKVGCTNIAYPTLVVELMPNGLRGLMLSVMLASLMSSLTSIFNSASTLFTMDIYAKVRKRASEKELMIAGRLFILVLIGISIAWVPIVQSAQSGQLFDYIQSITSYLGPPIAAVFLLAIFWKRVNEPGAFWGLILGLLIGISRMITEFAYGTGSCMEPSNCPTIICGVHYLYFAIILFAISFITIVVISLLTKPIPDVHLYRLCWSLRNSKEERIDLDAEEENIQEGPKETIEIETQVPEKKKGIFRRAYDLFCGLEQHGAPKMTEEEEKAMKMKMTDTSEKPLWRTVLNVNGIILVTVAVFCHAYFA

IC50 [nM] | SMILES
55 | O=C1C[C@H](C(=O)Nc2cc(-c3cc(Cl)cc(COCC(F)(F)F)c3)n(-c3ccc(F)cc3)n2)CN1 [Example 589]
13 | C[C@@H](OCc1cccc(-c2cc(NC(=O)[C@H]3CNC(=O)N3)nn2-c2ccc(Cl)cc2)c1)C(F)(F)F [Example 590]
66 | CC(C)(OCc1cc(Cl)cc(-c2cc(NC(=O)[C@H]3CNC(=O)N3)nn2-c2ccccc2)c1)C(F)(F)F [Example 594]
10 | CC(C)(OCc1cc(F)cc(-c2cc(NC(=O)[C@@H]3CNC(=O)C3)nn2-c2ccc(F)cc2)c1)C(F)(F)F [Example 595]
35 | O=C1NC[C@H](C(=O)Nc2cc(-c3cc(F)cc(COCC(F)(F)F)c3)n(-c3ccc(Cl)cc3)n2)N1 [Example 596]
60 | C[C@@H](OCc1cc(Cl)cc(-c2cc(NC(=O)[C@H]3CNC(=O)N3)nn2-c2ccccc2)c1)C(F)(F)F [Example 597]
47 | C[C@@H](OCc1cc(Cl)cc(-c2cc(NC(=O)[C@H]3CNC(=O)N3)nn2-c2ccc(F)cc2)c1)C(F)(F)F [Example 598]
27 | CC(C)(OCc1cccc(-c2cc(NC(=O)[C@H]3CNC(=O)N3)nn2-c2ccc(Cl)cc2)c1)C(F)(F)F [Example 599]
41 | CC(C)(OCc1cc(Cl)cc(-c2cc(NC(=O)[C@H]3CNC(=O)N3)nn2-c2ccc(F)cc2)c1)C(F)(F)F [Example 600]
31 | CC(C)(OCc1cc(F)cc(-c2cc(NC(=O)[C@H]3CNC(=O)N3)nn2-c2ccccc2)c1)C(F)(F)F [Example 601]
28 | CC(C)(OCc1cc(F)cc(-c2cc(NC(=O)[C@H]3CNC(=O)N3)nn2-c2ccc(F)cc2)c1)C(F)(F)F [Example 602]
16 | CC(C)(OCc1cc(F)cc(-c2cc(NC(=O)[C@H]3CNC(=O)N3)nn2-c2ccc(Cl)cc2)c1)C(F)(F)F [Example 603]
